Measured values reported in US20200087709A1, “DIRECT-TO-CONSUMER GENOMIC DIAGNOSTIC DEVICE” (MicroInvestigate, LLC, priority 2018, published 2020).
Entries after “also recorded” stand apart in the source; their conditions may differ.

Legend:
Test in all cases: Antibiotic testing by broth microdilution
Type in all cases: cell-based
[1] = system: Streptococcus pyogenes MGAS10394; settings: for resistance or susceptibility by broth dilution: S. pyogenes MGAS10394 (mef(A) positive); for MIC: Streptococcus pyogenes, MGAS10394, 20 h, S. pyogenes MGAS10394, known mef(A)+, BHI, 37° C., 20 hour incubation
Experimental: (§1) All bacteria were tested for their antimicrobial susceptibility by broth microdilution. Ampicillin (Cat #97061-442) was obtained from VWR (Amresco) and Erythromycin (Cat # TCE0751-5G) was obtained from VWR (TCI). Bacteria were maintained on blood agar plates at 37° C., and single colonies selected for inoculation into liquid overnight cultures in sterile Brain-Heart Infusion (BHI, VWR Cat #90003-038). For each culture, 5 mL of BHI media was inoculated in a sealed 15 ml falcon tube for overnight incubation at 37° C. (no shaking). Gentle inversion was used to mix the cultures prior to setting up the assay.
(§2) For the experiment, 5 μl of overnight culture was mixed with 5 mL of BMI media (1000× dilution) in a sterile tray and gently mixed. This dilute culture was added at […] per well of a 96-well plate pre-loaded with 20 μl of antibiotic solutions ranging, for erythromycin, from 0.5 to 32 μg/ml (10×) to produce the desired final concentrations of 0.05-3.2 μg/ml. For ampicillin, the stocks were 1.25 μg/ml-80 μg/ml resulting in final concentrations of 0.125 μg/ml-8 μg/ml. The 96-well plate was then transferred to a FilterMax F5 microplate reader for a 20 hour incubation at a temperature of 37° C., with readings taken every 30 minutes. A10-second orbital shaking was performed prior to each reading.

[2] = system: Streptococcus pyogenes MGAS6180; settings: for resistance or susceptibility by broth dilution: S. pyogenes MGAS6180 (mef(A) negative); for MIC: Streptococcus pyogenes, S. pyogenes MGAS6180, known mef(A)−, BHI, 37° C., 20 hour incubation
Experimental: as §1, §2

[3] = system: Streptococcus agalactiae SGBS025; settings: for resistance or susceptibility by broth dilution: S. agalactiae (ermB positive and mef(A) negative); for MIC: Streptococcus agalactiae, SGBS025, 20 h, S. agalactiae SGBS025, known ermB+, mef(A)−, BHI, 37° C., 20 hour incubation
Experimental: as §1, §2

[4] = system: Streptococcus salivarius patient isolate; settings: for resistance or susceptibility by broth dilution: S. salivarius (mef(A) positive); for MIC: Streptococcus salivarius, 20 h, S. salivarius patient isolate, discovered mef(A)+, BHI, 37° C., 20 hour incubation
Experimental: as §1, §2

CC[C@H]1OC(=O)[C@H](C)[C@@H](O[C@H]2C[C@@](C)(OC)[C@@H](O)[C@H](C)O2)[C@H](C)[C@@H](O[C@@H]2O[C@H](C)C[C@H](N(C)C)[C@H]2O)[C@](C)(O)C[C@@H](C)C(=O)[C@H](C)[C@@H](O)[C@]1(C)O [erythromycin, Erythromycin]
resistance or susceptibility by broth dilution [1]: resistant | MIC [1]: ≥ 3.2 µg/mL | resistance or susceptibility by broth dilution [2]: susceptible | MIC [2]: < 0.05 µg/mL | resistance or susceptibility by broth dilution [3]: robust resistance; also recorded: resistant | MIC [3]: ≥ 3.2 µg/mL | resistance or susceptibility by broth dilution [4]: resistant | MIC [4]: ≥ 3.2 µg/mL

CC1(C)S[C@@H]2[C@H](NC(=O)[C@H](N)c3ccccc3)C(=O)N2[C@H]1C(=O)O [ampicillin, Ampicillin]
resistance or susceptibility by broth dilution [1]: susceptible | MIC [1]: < 0.125 µg/mL | resistance or susceptibility by broth dilution [2]: susceptible | MIC [2]: < 0.125 µg/mL | resistance or susceptibility by broth dilution [3]: susceptible | MIC [3]: < 0.125 µg/mL | resistance or susceptibility by broth dilution [4]: susceptible | MIC [4]: < 0.125 µg/mL
